Measured values: patent US20220257569A1, “INDOLE-OXADIAZOLE COMPOUNDS AND THEIR THERAPEUTIC USE” (THE GOVERNING COUNCIL OF THE UNIVERSITY OF TORONTO, priority 2018, published 2022)

Key:
[1] = target: T1, CB1 receptor (Mus musculus, UniProt P47746); details: equilibrium binding assay, cited from earlier work; for effect on binding of CP55940: agonist CP55940
[2] = Rat liver microsomal stability assay; format: in vitro ADME; details: both sexes, pH 7.4; pooled rat liver microsomes 0.5 mg/mL, 3 μM compound, NADPH, 37° C., 45 min; read-out: Microsomal stability T1/2 Rat
Protocol: (§1) Metabolic stability of indole-oxadiazole derivatives of Formula I was measured by determination of the rate of compound disappearance when incubated in the presence of human or rat liver microsomes. Liver microsomes are prepared from the endoplasmic reticulum of hepatocytes and are the primary source of the most important enzymes (cytochrome P450) involved in drug metabolism. Study of drug stability in the presence of liver microsomes is accepted as a valuable model permitting rapid prediction of in vivo drug stability.
(§2) Human and rat liver microsomes were obtained from commercial sources. Test compounds (3 μM) were incubated with pooled liver microsomes (male and female). Samples were incubated for a 45 minute period and removed at 5 time points and test compounds were analysed by LC-MS/MS.
(§3) Microsomes (final protein concentration 0.5 mg/mL), 0.1 M phosphate buffer pH 7.4, and test compound (final concentration 3 μM; diluted from 10 mM stock solution to give a final DMSO concentration of 0.25%) were incubated at 37° C. prior to the addition of NADPH (final concentration 1 mM) to initiate the reaction. The final incubation volume was 25 μL. A control incubation was included for each compound tested, where 0.1 M phosphate buffer pH 7.4 was added instead of NADPH. The control compounds testosterone and 7-hydroxycoumarin were included in each experiment and all incubations were performed singularly for each compound.
(§4) Each compound was incubated for 0, 5, 15, 30, and 45 minutes. The control (minus NADPH) was incubated for 45 minutes only. The reactions were stopped by the addition of 50 μL methanol containing internal standard at the appropriate time points. The incubation plates were centrifuged at 2500 rpm for 20 minutes at 4° C. to precipitate the protein.
(§5) Following protein precipitation, the sample supernatants were combined in cassettes of up to 4 compounds and analysed using standard LC-MS/MS conditions.
(§6) From a plot of the natural logarithm of the peak area ratio (i.e., the ratio of compound peak area:internal standard peak area) against time, the gradient of the line was determined. Subsequently, half-life and intrinsic clearance were calculated using the equations below:
(§7) Eliminated rate constant (k)=(−gradient).

[3] = Human liver microsomal stability assay; format: in vitro ADME; details: both sexes, pH 7.4; pooled human liver microsomes 0.5 mg/mL, 3 μM compound, NADPH, 37° C., 45 min; read-out: Microsomal stability T1/2 Human
Protocol: as §1, §2, §3, §4, §5, §6, §7

[4] = target: T1, CB1 receptor; set-up: from the CB1 receptor in mouse brain membranes; from tissue; host or cells: mouse brain membranes; details: mouse brain membranes; cited from earlier work
[5] = target: T2, cannabinoid CB1 receptor (Homo sapiens, UniProt P21554); assay: PathHunter β-Arrestin assay (allosteric inhibition of agonist Emax); format: cell-based; details: HEK293 CB1 β-arrestin cells; concentration of modulator giving 50% reduction in agonist Emax; 60 min pre-incubation
T2 construct: host or cells: HEK293 CB1 β-arrestin cells
Source text: PathHunter™ enzyme fragment complementation is the most important method to measure β-arrestin recruitment. PathHunter™ β-Arrestin assays developed by DiscoveRX are revolutionary high-throughput screening assays for monitoring GPCR activation following ligand stimulation, without an imaging instrument, fluorescent protein tag, or radioactivity.
Instead, the assays detect GPCR activation through binding of β-arrestin to the expressed GPCR of interest, and measure the interaction of the two proteins using enzyme fragment complementation (EFC). The EFC approach offers a range of benefits for screening, including signal amplification and robust performance.
The larger portion of β-gal, termed EA for enzyme acceptor, is fused to the C-terminus of β-arrestin. The smaller, complementing fragment of β-gal, the ProLink™ tag, is expressed as a fusion protein with the GPCR of interest at the C-terminus. Upon activation, the GPCR is bound by β-arrestin. The interaction of β-arrestin and the GPCR forces the interaction of ProLink and EA, thus allowing complementation of the two fragments of β-gal and the formation of a functional enzyme capable of hydrolyzing substrate and generating a […] signal.
Using the PathHunter™ CB1 kit from DiscoveRX, a cannabinoid CB1 receptor agonist is added and activates the receptor, EA, which is fused to the C-terminus of β-arrestin, and then interacts with the ProLink™ tag which is fused to the CB1 receptor. This will result in the […] signal that is recorded by a luminescence plate reader. The […] signal is directly related to the activation of the receptor, therefore a higher concentration of agonist will yield a larger […] signal. The cannabinoid agonist is added in increasing concentrations to obtain an agonist dose response curve. With pre-incubation of a potential allosteric modulator, either an enhancement of agonist activity with an allosteric enhancer or a decrease in the maximal response of the agonist with an allosteric inhibitor is expected.
All raw data are obtained as luminescence (relative light units), and are normalised and presented as a percentage of the maximal response for the cannabinoid CB1 receptor agonist CP55,940 (2-[(1R,2R,5R)-5-hydroxy-2-(3-hydroxypropyl)cyclohexyl]-5-(2-methyloctan-2-yl)phenol).
The PathHunter™ β-Arrestin assay (from DiscoveRX, Fremont, USA) was performed as follows. HEK293 CB1 β-arrestin cells were plated 48 hours before use and incubated at 37° C., 5% CO2 in a humidified incubator. Test compounds were dissolved in dimethylsulfoxide (DMSO) and diluted in optimized cell culture (OCC, as supplied by DiscoveRX) media to the required concentrations. 5 μL of test compound or vehicle solution was added to each well and incubated for 60 minutes at 37° C., 5% CO2 in a humidified incubator. 5 μL of increasing concentrations of anandamide was added to each well followed by a 90-minute incubation at 37° C., 5% CO2 in a humidified incubator. 55 μL of detection reagent (as supplied by DiscoveRX) was then added, followed by a further 90 minute incubation at room temperature in the dark. Chemiluminescence, reported in relative light units (RLU—a dimensionless value, standardised as a % of maximum stimulation with anandamide), was measured on a standard luminescence plate reader.
Data were plotted as % of maximal stimulation (Emax) caused by agonist versus the logarithm of concentration of agonist, in the presence or absence of a fixed concentration of test compound (modulator) or vehicle. For example, stimulation in the presence of agonist alone will give a value for stimulation expressed in RLU, which can be expressed as a range from 0% (at lowest agonist concentration, e.g., 1 nM) to 100% (at the highest agonist concentration, e.g., 10 μM). […]

T1 sequence (P47746 whole entry): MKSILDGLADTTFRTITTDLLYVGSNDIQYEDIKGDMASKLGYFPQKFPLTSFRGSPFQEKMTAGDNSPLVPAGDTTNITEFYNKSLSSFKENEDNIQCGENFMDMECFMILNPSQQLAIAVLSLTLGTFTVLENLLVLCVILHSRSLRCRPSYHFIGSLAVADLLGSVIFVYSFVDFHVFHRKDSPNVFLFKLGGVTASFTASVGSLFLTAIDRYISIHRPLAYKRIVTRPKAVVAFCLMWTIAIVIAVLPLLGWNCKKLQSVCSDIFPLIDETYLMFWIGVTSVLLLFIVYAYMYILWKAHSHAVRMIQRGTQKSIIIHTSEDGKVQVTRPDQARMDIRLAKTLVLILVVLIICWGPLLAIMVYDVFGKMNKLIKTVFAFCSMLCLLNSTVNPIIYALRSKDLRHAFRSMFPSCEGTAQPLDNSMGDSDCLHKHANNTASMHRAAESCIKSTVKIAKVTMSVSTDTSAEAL
T2 sequence (P21554 whole entry): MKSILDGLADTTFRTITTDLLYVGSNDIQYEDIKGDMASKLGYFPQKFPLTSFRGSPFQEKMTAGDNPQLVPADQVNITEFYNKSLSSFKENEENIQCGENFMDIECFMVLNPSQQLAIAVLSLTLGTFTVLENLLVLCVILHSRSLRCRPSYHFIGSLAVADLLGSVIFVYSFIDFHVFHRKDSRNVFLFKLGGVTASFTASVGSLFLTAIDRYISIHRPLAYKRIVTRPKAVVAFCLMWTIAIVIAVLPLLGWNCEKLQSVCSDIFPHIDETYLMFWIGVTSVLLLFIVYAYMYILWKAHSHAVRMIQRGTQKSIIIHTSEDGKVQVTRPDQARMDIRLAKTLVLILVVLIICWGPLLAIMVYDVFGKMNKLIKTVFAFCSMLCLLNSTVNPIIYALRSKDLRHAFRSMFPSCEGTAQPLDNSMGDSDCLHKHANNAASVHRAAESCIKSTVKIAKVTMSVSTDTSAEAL

| half-life at 3 μM [2] | half-life at 3 μM [3] | IC50 [5] | melting point | SMILES | effect on binding of CP55940 [1] | effect on binding of radiolabelled inverse agonist SR141716A [1] | effect on dissociation of radiolabelled CB1 receptor agonist CP55940 [4] |
| --- | --- | --- | --- | --- | --- | --- | --- |
| 28 min | 32 min |  |  | CCc1c(C(=O)NCCc2ccc(N3CCCCC3)cc2)[nH]c2ccc(Cl)cc12 [Reference compound 1 (Org27569)] | increase | decrease | slowing of the dissociation |
|  |  |  |  | CCc1c(C(=O)NC2CCN(Cc3ccccc3)C2)[nH]c2ccc(Cl)cc12 (stereo not drawn) [ORG29647] | increase | decrease | slowing of the dissociation |
| 40 min | 46 min | 0.058 µM | 180 to 182 °C | CCc1c(-c2nnc(SCc3ccccc3)o2)[nH]c2ccc(Cl)cc12 [ABM328, 2-(Benzylthio)-5-(5-chloro-3-ethyl-1H-indol-2-yl)-1,3,4-oxadiazole] |  |  |  |
| 48 min | 39 min |  |  | O=S(=O)(NCc1ccc(-c2ccc(F)nc2F)cc1)c1cc2cc(Cl)ccc2[nH]1 [Reference compound 3 (ABD1085), reference compound] |  |  |  |
| 32 min | 56 min |  |  | O=S(=O)(NCc1ccc(-c2ccc(F)cc2F)cn1)c1cc2cc(Cl)ccc2[nH]1 [Reference compound 2 (ABD1075), reference compound] |  |  |  |
|  |  |  |  | CCc1c(C(=O)NCCc2ccc(N(C)C)cc2)[nH]c2ccc(F)cc12 [ORG27759] | increase | decrease | slowing of the dissociation |
| 292 min | 174 min | 0.001 µM | 243 to 245 °C | CCc1c(-c2nnc(Nc3ccc(F)cc3)o2)[nH]c2ccc(Br)cc12 [ABM338, 5-(5-Bromo-3-ethyl-1H-indol-2-yl)-N-(4-fluorophenyl)-1,3,4-oxadiazol-2-amine] |  |  |  |
| 23 min | 40 min | 0.019 µM | 185 to 187 °C | CCc1c(-c2nnc(SCc3ccc(F)cc3)o2)[nH]c2ccc(Br)cc12 [ABM340, 2-(5-Bromo-3-ethyl-1H-indol-2-yl)-5-((4-fluorobenzyl)thio)-1,3,4-oxadiazole] |  |  |  |
